Measurements reported in patent publication US20250179126A1, “A NOVEL PEPTIDE FROM A PHOTOSYNTHETIC BACERIUM DIRECTLY TARGETS MITOCHONDRIA TO TRIGGER APOPTOSIS IN ADVANCED PROSTATE CANCER CELLS” (priority 2022, published 2025).

Assays:
Type in all cases: cell-based, human
[1] = tested on: DU145 prostate cancer cells; experiment: MTT cell viability assay, DU145 prostate cancer cells; settings: DU145 (p53-mutant, AR−), 24-72 hr; paclitaxel 1 nM
From the text: Cell viability was detected by MTT assays, and the control (PBS-treated) cells were considered 100% viable. Mean±SE (N=3). *P<0.05, **P<0.01, ***P<0.001.
(§1) Cell lines and culture: Human cancer and noncancer (immortalized and nonimmortalized) cell lines were obtained from the American Type Culture Collection [prostate cancer (PC3, DU145 and LNCaP), normal prostate (CRL11611), breast cancer (MCF-7), ovarian cancer (SK-OV3 adenocarcinoma), lung cancer (A549)]. MDD2 breast cancer cells (p53 dominant-negative) were provided courtesy of Dr Andrei V. Gudkov, Roswell Park Cancer Institute. 20 All cell lines were cultured in MEM-E (Invitrogen) supplemented with 10% heat-inactivated fetal bovine serum (Atlanta Biological, Inc.), 100 units/mL penicillin, and 100 μg/mL streptomycin at 37° C. in 5% CO2.

[2] = tested on: LNCaP prostate cancer cells; experiment: MTT cell viability assay, LNCaP prostate cancer cells; settings: LNCaP (p53 wild-type, AR+), 24-72 hr; paclitaxel 1 nM
Protocol: as §1

[3] = tested on: PC3 prostate cancer cells; experiment: MTT cell viability assay, PC3 prostate cancer cells; settings: PC3 (p53-null, AR−), 24-72 hr; paclitaxel 1 nM
Protocol: as §1

[4] = tested on: normal prostate cells CRL11611; experiment: MTT cell viability assay, normal prostate CRL11611 cells; settings: normal prostate CRL11611 (p53+, AR+), 24-72 hr; paclitaxel 1 nM
From the text: FIG. 4A-4D: Effect of peptides on prostate cancer cell lines with differences in p53 and AR expression status. […] Control (PBS)-treated cells were considered to have 100% viability. Mean±SE (N=3).
as §1
Cytotoxicity assay: The MTT assay was performed as we previously described (Cha et al., Cancer Research 2020, 80: 1615-1623).

CSCC[C@H](NC(=O)CNC(=O)[C@H](CC(=O)O)NC(=O)[C@@H](NC(=O)[C@@H](NC(=O)[C@@H](NC(=O)CNC(=O)[C@H](CCC(N)=O)NC(=O)[C@H](CCSC)NC(=O)[C@H](CC(=O)O)NC(=O)[C@H](C)NC(=O)[C@H](C)NC(=O)[C@@H](NC(=O)[C@H](CO)NC(=O)[C@@H](N)CC(C)C)[C@@H](C)O)C(C)C)C(C)C)[C@@H](C)O)C(=O)N[C@@H](C)C(=O)N[C@@H](CO)C(=O)NCC(=O)N[C@@H](CC(C)C)C(=O)N[C@@H](CC(=O)O)C(=O)N[C@@H](CCCCN)C(=O)N[C@@H](CC(=O)O)C(=O)N[C@@H](Cc1ccc(O)cc1)C(=O)N[C@@H](CC(C)C)C(=O)N[C@@H](CCCCN)C(=O)N1CCC[C@H]1C(=O)N[C@@H](CC(=O)O)C(=O)N[C@@H](CC(=O)O)C(=O)O [p28, LST AAD MQG VVT DGM ASG LDK DYL KPDD, reference compound]
cytotoxic effect (MTT cell viability) [1]: dose-dependent effect
cytotoxic effect (MTT cell viability) [2]: dose-dependent effect
cytotoxic effect (MTT cell viability) [3]: but not p53-null PC3 cells
cytotoxic effect (MTT cell viability) [4]: but not p53-null PC3 cells or normal CRL11611 cells
